In a melting point compilation (Tetko et al.; mined from patent text by program, amines drawn as free bases though some values may be those of a salt):

SMILES | melting point [°C]
CC(=O)c1cc2c(Cl)cc(F)c(-n3c(=O)cc(C(F)(F)F)n(C)c3=O)c2o1 | 193 to 194
COc1ccc2c(c1)CCN(CCc1ccc(NC(=O)c3cccc4c(=O)c5cccc(OC)c5[nH]c34)cc1)C2 | 260
CC(=O)OCC1OC(n2c(Cl)nc3c(Br)c(Br)ccc32)C(OC(C)=O)C1OC(C)=O (configuration not stated) | 129 to 130
Cn1ccnc1Sc1ccc(Nc2c(C#N)cnc3cc(-c4ccc(CN5CCOCC5)nc4)ccc23)cc1Cl | 233 to 235
N#CC(c1ccc(Cl)c(C(F)(F)F)c1)N1CCOCC1 (configuration not stated) | 73 to 74
Cc1cc(NC(=O)CN(CC(=O)O)CC(=O)O)ccc1Br | 206 to 209
CCC(=O)N1CCc2ccccc2C(Oc2ccc(C(F)(F)F)cc2)C1 (configuration not stated) | 109 to 110
CCOc1ccc(-c2cc(Nc3ccc(OC)c(Cl)c3)nc(NC(C)=O)n2)cc1 | 214
COC(=O)C1=C(C)NC(C)=C(C(C)=O)C1c1ccccc1Br (configuration not stated) | 146 to 148
CC(=O)Oc1ccc(CC(=O)Nc2cccc(/C=C/c3nc(C4CCC4)cs3)c2)c(C(=O)O)c1 | 176 to 179
O=C(O)C(O)=CC(=O)c1cc(Cc2ccc(F)cc2F)cn(Cc2ccccc2F)c1=O | 187 to 189
COC(=O)CCSCc1csc(NC(N)=NCC(F)(F)F)n1 | 96 to 98
Nc1cccc(-c2ccc(OCCN3CC4C(N)C4C3)c3ccccc23)n1 (configuration not stated) | 140 to 155
CC1NC(=O)NN=C1c1ccc(OCC(=O)NCCN2CCNCC2)c(Cl)c1 (configuration not stated) | 208 to 210
CC1(C)Oc2ccc(C#N)cc2[C@@H](NC(=O)Nc2ccc(-c3ncno3)cc2)[C@@H]1O | 162 to 167
CC(C)Cc1ccc2c(c1O)C(=O)c1ccc(CC(C)C)c(O)c1C2=O | 188
CCC(C(=O)O)c1cccc(C(=O)c2cc3ccsc3s2)c1 (configuration not stated) | 143
CCC(OC(C)=O)C(=O)Nc1ccc(I)cc1Cl (configuration not stated) | 156 to 158
O=c1c2c(F)cccc2nc2sccn12 | 205 to 207

SMILES | melting point [°C]
CCN1CCC(C(C(N)=O)(c2ccccc2)c2ccccc2)C1 (configuration not stated) | 141 to 142
COc1ccc(CCNc2nc(NCc3cc(OC)cc(OC)c3)c3cccnc3n2)cc1 | 88 to 89
CCOCc1cc2ccccc2oc1=Nc1ccc(CC)cc1 | 104 to 105
Cc1cc(Oc2cccc(C(F)(F)F)c2)nn1C(=O)Nc1ccc(F)cc1F | 84 to 85
O=C(O)COc1ccc(C2=CC(=O)CC(c3ccccc3F)C2)c(Cl)c1Cl (configuration not stated) | 187 to 190
Nc1cc2c3c(cccc3c1Cl)C(=O)N(O)C2=O | 271 to 275
COc1ccc(CCS(N)(=O)=S)cc1 (configuration not stated) | 186 to 187
Cc1cc(C)c2cccc(OCc3c(Cl)ccc(S(=O)(=O)N4CCC[C@H]4C(=O)NCCNC(=O)COc4ccc(C=NN)cc4)c3Cl)c2n1 | 156 to 160
O=c1[nH]c2c(O)cccc2c(=O)n1CCCN1CC=C(c2ccc(Cl)cc2)CC1 | 284 to 286
O=C1NC(=O)C(Cc2ccc(OCC3CCN(C(=O)OCc4ccccc4)CC3)cc2)S1 (configuration not stated) | 54 to 56
CC(C)N(C=Nc1ncc(Oc2ccc(Cl)cc2)c(Cl)n1)C(C)C | 135 to 136
Nc1ncnc2c1sc(=O)n2C1OC(CO)C(O)C1O (configuration not stated) | 248 to 250
FC(F)(F)c1ccc(Nc2nnc(Cc3ccncc3)c3ccccc23)cc1 | 205 to 206
Nc1nc(N)c(CCNc2ccc(C(=O)N[C@@H](CCC(=O)O)C(=O)O)cc2)c(=O)[nH]1 | 180 to 185
Cc1ccc2ccc(N3C(=O)c4cccnc4C3OC(=O)N3CCN(C)CC3)nc2n1 (configuration not stated) | 226
NC(=O)C1=NN(c2ccccc2)C(C(=O)O)=NN1c1ccccc1 | 241 to 242
CCOc1ccc(Oc2ccc(OCc3ccccc3)cc2)c([N+](=O)[O-])c1 | 96 to 96.5
N#Cc1ccc(-c2ccc(OC3SCC(O)C(O)C3O)c(F)n2)cn1 (configuration not stated) | 158 to 162
